Laboratory results taken from US8541410B2, “Sulfur substituted sulfonylaminocarboxylic acid N-arylamides, their preparation, their use and pharmaceutical preparations comprising them” (Sanofi-aventis Deutschland GmbH, priority 1998, dated 2013).

Target: T1, soluble guanylate cyclase (sGC) (Bos taurus, UniProt P16068)
T1 construct: The sGC which was employed had been isolated from bovine lung; from tissue; host or cells: bovine lung
T1 sequence (P16068 1-619): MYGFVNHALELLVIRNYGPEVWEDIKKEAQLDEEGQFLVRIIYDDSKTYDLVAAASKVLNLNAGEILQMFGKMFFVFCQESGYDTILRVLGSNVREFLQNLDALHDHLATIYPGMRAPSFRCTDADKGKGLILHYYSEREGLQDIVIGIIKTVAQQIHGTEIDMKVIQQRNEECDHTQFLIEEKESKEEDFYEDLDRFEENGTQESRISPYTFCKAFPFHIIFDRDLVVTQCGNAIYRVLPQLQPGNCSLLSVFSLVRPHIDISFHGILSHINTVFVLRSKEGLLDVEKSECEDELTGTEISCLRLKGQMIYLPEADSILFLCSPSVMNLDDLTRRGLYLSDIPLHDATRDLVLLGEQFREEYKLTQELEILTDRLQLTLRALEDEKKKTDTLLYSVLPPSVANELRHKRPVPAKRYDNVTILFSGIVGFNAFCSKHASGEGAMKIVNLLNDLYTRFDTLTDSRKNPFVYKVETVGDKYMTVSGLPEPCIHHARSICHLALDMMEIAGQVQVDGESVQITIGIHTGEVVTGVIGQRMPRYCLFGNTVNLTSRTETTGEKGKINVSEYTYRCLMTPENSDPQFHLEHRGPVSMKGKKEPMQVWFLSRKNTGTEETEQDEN
T1 sequence (P19687 1-691 partner): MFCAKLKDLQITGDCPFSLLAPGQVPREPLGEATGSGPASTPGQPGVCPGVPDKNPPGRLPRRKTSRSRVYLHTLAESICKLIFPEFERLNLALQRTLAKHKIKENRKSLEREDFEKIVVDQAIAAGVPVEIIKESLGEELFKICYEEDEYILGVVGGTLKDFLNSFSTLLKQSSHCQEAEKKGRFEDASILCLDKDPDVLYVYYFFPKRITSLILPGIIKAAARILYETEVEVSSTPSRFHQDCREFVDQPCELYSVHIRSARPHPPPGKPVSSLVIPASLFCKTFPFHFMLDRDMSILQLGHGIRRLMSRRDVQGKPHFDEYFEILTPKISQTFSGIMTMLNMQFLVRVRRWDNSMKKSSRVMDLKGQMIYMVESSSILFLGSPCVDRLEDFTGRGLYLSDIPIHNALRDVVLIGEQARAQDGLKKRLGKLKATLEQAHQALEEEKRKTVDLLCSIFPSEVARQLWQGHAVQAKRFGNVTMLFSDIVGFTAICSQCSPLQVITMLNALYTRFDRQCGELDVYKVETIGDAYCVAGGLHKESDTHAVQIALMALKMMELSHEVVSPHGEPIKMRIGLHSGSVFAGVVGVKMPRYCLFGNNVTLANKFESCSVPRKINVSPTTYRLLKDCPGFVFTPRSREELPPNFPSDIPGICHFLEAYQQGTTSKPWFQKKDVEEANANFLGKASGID
Assay: Activation of the soluble guanylate cyclase (cGMP enzyme immunoassay)
Assay type: biochemical, bovine
Settings: concentration c 50 μM; n-fold stimulation of basal enzyme activity
Procedure: The activation of the soluble guanylate cyclase (sGC) which catalyzes the conversion of guanosine triphosphate (GTP) into cyclic guanosine monophosphate (cGMP) and pyrophosphate, by the compounds according to the invention was quantified with the aid of an enzyme immunoassay (EIA) from Amersham. For this purpose the substances to be tested were initially incubated with sGC in microtiter plates, and the amount of the cGMP formed was then determined.
The sGC which was employed had been isolated from bovine lung (see Methods in Enzymology, Volume 195, p. 377). The test solutions (100 μl per well) contained 50 mM triethanolamine (TEA) buffer (pH 7.5), 3 mM MgCl2, 3 mM reduced glutathione (GSH), 0.1 mM GTP, 1 mM 3-isobutyl-1-methylxanthine (IBMX), suitably diluted enzyme solution and the substance to be tested or, in the control experiments, the solvent. The substances to be tested were dissolved in dimethyl sulfoxide (DMSO) and the solution was diluted with DMSO/water, so that the final concentration (c) of the substance to be tested in the test solution had the value indicated in the table. The DMSO concentration in the test solution was 5% (v/v). The reaction was initiated by addition of the sGC. The reaction mixture was incubated at 37° C. for 15 to 20 minutes and then stopped by ice-cooling and addition of the stop reagent (50 mM EDTA, pH 8.0). An aliquot of 50 μl was taken and used for determining the cGMP content using the acetylation protocol of the Amersham cGMP-EIA kit. The absorption of the samples was measured at 450 nm (reference wavelength 620 nm) in a microtiter plate reader. The cGMP concentration was determined using a standard curve which was obtained under the same test conditions. The activation of sGC by a test substance is given as the n-fold stimulation of the basal enzyme activity which was found in the control experiments (using solvent instead of test substance) (calculated using the formula n-fold stimulation=[cGMP]test substance/[cGMP]control).

Compared with `CSc1ccc(NC(=O)c2cc(Cl)ccc2NS(=O)(=O)c2ccc(Cl)cc2)cc1` [Example 23, 5-Chloro-2-(4-chloro-phenylsulfonylamino)-N-(4-methylmercapto-phenyl)-benzamide], `CCN(CC)S(=O)(=O)c1ccc(NC(=O)c2cc(Cl)ccc2NS(=O)(=O)c2ccc(Cl)cc2)cc1` [Example 75, 5-Chloro-2-(4-chloro-phenylsulfonylamino)-N-(4-diethylsulfamoyl-phenyl)-benzamide] is lower in n-fold stimulation: 14.7 for the first, 5.1 for the second.

Compared with `O=C(Nc1ccc(S(=O)(=O)N2CCSCC2)cc1)c1cc(Cl)ccc1NS(=O)(=O)c1ccc(Cl)cc1` [Example 63, 5-Chloro-2-(4-chloro-phenylsulfonylamino)-N-(4-(thiomorpholine-4-sulfonyl)-phenyl)-benzamide], `Cc1ccc(NS(=O)(=O)c2ccc(Cl)cc2)c(C(=O)Nc2ccc(S(=O)(=O)N3CCSCC3)cc2)c1` [Example 86, 2-(4-Chloro-phenylsulionylamino)-5-methyl-N-(4-(thiomorpholine-4-sulfonyl)-phenyl)-benzamide] is lower in n-fold stimulation: 33.9 for the first, 32.9 for the second.

Going from `CN1CCN(S(=O)(=O)c2ccc(NC(=O)c3cc(Cl)ccc3NS(=O)(=O)c3ccc(Cl)cc3)cc2)CC1` [Example 64, 5-Chloro-2-(4-chloro-phenylsulfonylamino)-N-(4-(4-methyl-piperazine-1-sulfonyl)-phenyl)-benzamide] to `O=C(Nc1ccc(S(=O)(=O)N2CCN(CCO)CC2)cc1)c1cc(Cl)ccc1NS(=O)(=O)c1ccc(Cl)cc1` [Example 73, 5-Chloro-2-(4-chloro-phenylsulfonylamino)-N-(4-(4-(2-hydroxy-ethyl)-piperazine-1-sulfonyl)-phenyl)-benzamide], the n-fold stimulation falls from 23.9 to 16.5.

Compared with `CC1CN(S(=O)(=O)c2ccc(NC(=O)c3cc(Cl)ccc3NS(=O)(=O)c3ccc(Cl)cc3)cc2)CC(C)O1` (stereo not shown) [Example 65, 5-Chloro-2-(4-chloro-phenylsulfonylamino)-N-(4-(2,6-dimethyl-morpholine-4-sulfonyl)-phenyl)-benzamide], `C[C@@H]1CN(S(=O)(=O)c2ccc(NC(=O)c3cc(Cl)ccc3NS(=O)(=O)c3ccc(Cl)cc3)cc2)C[C@H](C)O1` [Example 66, 5-Chloro-2-(4-chloro-phenylsulfonylamino)-N-(4-(cis-2,6-dimethyl-morpholine-4-sulfonyl)-phenyl)-benzamide] is higher in n-fold stimulation: 24.6 for the first, 33 for the second.

Compared with `O=C(Nc1ccc(S(=O)(=O)N2CCC(O)CC2)cc1)c1cc(Cl)ccc1NS(=O)(=O)c1ccc(Cl)cc1` [Example 67, 5-Chloro-2-(4-chloro-phenylsulfonylamino)-N-(4-(4-hydroxy-piperidine-1-sulfonyl)-phenyl)-benzamide], `O=C(Nc1ccc(S(=O)(=O)N2CCCCC2)cc1)c1cc(Cl)ccc1NS(=O)(=O)c1ccc(Cl)cc1` [Example 76, 5-Chloro-2-(4-chloro-phenylsulfonylamino)-N-(4-(piperidine-1-sulfonyl)-phenyl)-benzamide] is lower in n-fold stimulation: 29.6 for the first, 10.6 for the second.

Going from `O=C(Nc1ccc(S(=O)(=O)N2CCC3(CC2)OCCO3)cc1)c1cc(Cl)ccc1NS(=O)(=O)c1ccc(Cl)cc1` [Example 68, 5-Chloro-2-(4-chloro-phenylsulfonylamino)-N-(4-(1,4-dioxa-8-aza-spiro[4.5]decane-8-sulfonyl)-phenyl)-benzamide] to `O=C(Nc1ccc(S(=O)(=O)N2CCOCC2)cc1)c1cc(Cl)ccc1NS(=O)(=O)c1ccc(Cl)c(Cl)c1` [Example 69, 5-Chloro-2-(3,4-dichloro-phenylsulfonylamino)-N-(4-(morpholine-4-sulfonyl)-phenyl)-benzamide], the n-fold stimulation rises from 12.1 to 28.3.

First: O=C(Nc1ccc(S(=O)(=O)N2CCSCC2)cc1)c1cc(Cl)ccc1NS(=O)(=O)c1ccc(Cl)c(Cl)c1 [Example 70, 5-Chloro-2-(3,4-dichloro-phenylsulfonylamino)-N-(4-(thiomorpholine-4-sulfonyl)-phenyl)-benzamide]
Second: CN1CCN(S(=O)(=O)c2ccc(NC(=O)c3cc(Cl)ccc3NS(=O)(=O)c3ccc(Cl)c(Cl)c3)cc2)CC1 [Example 71, 5-Chloro-2-(3,4-dichloro-phenylsulfonylamino)-N-(4-(b4-methyl-piperazine-1-sulfonyl)-phenyl)-benzamide]
The n-fold stimulation of the first is higher: 25.1 for the first, 13.4 for the second.

First: COc1cc(NS(=O)(=O)c2ccc(Cl)cc2)c(C(=O)Nc2ccc(S(=O)(=O)N3CCOCC3)cc2)cc1OC [Example 72, 2-(4-Chloro-phenylsulfonylamino)-4,5-dimethoxy-N-(4-(morpholine-4-sulfonyl)-phenyl)-benzamide]
Second: COc1cc(NS(=O)(=O)c2ccc(Cl)cc2)c(C(=O)Nc2ccc(S(=O)(=O)N3CCN(C)CC3)cc2)cc1OC [Example 87, 2-(4-Chloro-phenylsulfonylamino)-4,5-dimethoxy-N-(4-(4-methyl-piperazine-1-sulfonyl)-phenyl)-benzamide]
The n-fold stimulation of the first is higher: 27 for the first, 12.5 for the second.

First: COCCNS(=O)(=O)c1ccc(NC(=O)c2cc(Cl)ccc2NS(=O)(=O)c2ccc(Cl)cc2)cc1 [Example 77, 5-Chloro-2-(4-chloro-phenylsulfonylamino)-N-(4-(2-methoxy-ethylsulfamoyl)-phenyl)-benzamide]
Second: COc1cc(NS(=O)(=O)c2ccc(Cl)cc2)c(C(=O)Nc2ccc(S(=O)(=O)N3CCC(O)CC3)cc2)cc1OC [Example 89, 2-(4-Chloro-phenylsulfonylamino)-N-(4-(4-hydroxy-piperidine-1-sulfonyl)-phenyl)-4,5-dimethoxy-benzamide]
The n-fold stimulation of the first is lower: 5.9 for the first, 11.6 for the second.

First: O=C(Nc1ccc(S(=O)(=O)N2CCOCC2)cc1)c1sccc1NS(=O)(=O)c1ccc(Cl)cc1 [Example 79, 3-(4-Chloro-phenylsulfonylamino)-N-(4-(morpholine-4-sulfonyl)-phenyl)-thiophene-2-carboxamide]
Second: O=C(Nc1ccc(S(=O)(=O)N2CCSCC2)cc1)c1sccc1NS(=O)(=O)c1ccc(Cl)cc1 [Example 84, 3-(4-Chloro-phenylsulfonylamino)-N-(4-(thiomorpholine-4-sulfonyl)-phenyl)-thiophene-2-carboxamide]
The n-fold stimulation of the first is lower: 15.4 for the first, 23.7 for the second.

Compared with `Cc1nn(C)c(Cl)c1S(=O)(=O)Nc1ccc(Cl)cc1C(=O)Nc1ccc(S(=O)(=O)N2CCSCC2)cc1` [Example 124, 5-Chloro-2-(5-chloro-1,3-dimethyl-1H-pyrazole-4-sulfonyl-amino)-N-(4-(thiomorpholine-4-sulfonyl)-phenyl)-benzamide], `Cc1nn(C)c(Cl)c1S(=O)(=O)Nc1ccc(Cl)cc1C(=O)Nc1ccc(S(=O)(=O)N2CCOCC2)cc1` [Example 130, 5-Chloro-2-(5-chloro-1,3-dimethyl-pyrazole-4-sulfonyl-amino)-N-(4-(morpholine-4-sulfonyl)-phenyl)-benzamide] is higher in n-fold stimulation: 31.2 for the first, 35.3 for the second.
